Laboratory results from PubChem BioAssay AID248 (DTP/NCI, 2004).
“And” between values parts separate entries of the source, which are not always exact repeats. Identical values can stand only once. Toxic doses and inconclusive results are not listed.

System: L1210 leukemia ip in BDF1 mice, survival T/C
Assay: NCI In Vivo Anticancer Drug Screen. Data for tumor model L1210 Leukemia (intraperitoneal) in B6D2F1 (BDF1) mice
Settings: endpoint: mean survival time, higher = longer survival
Outline: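 Ratio derived from survival: compound-dosed mice over vehicle-dosed mice, all bearing a transplantable tumor.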

[1] = dose: 100.0 mg/kg/injection, schedule: Q01DX009 (ip), vehicle: Klucel (hydroxypropylcellulose) (HPC)
[2] = dose: 200.0 mg/kg/injection, schedule: Q01DX009 (ip), vehicle: Klucel (hydroxypropylcellulose) (HPC)
[3] = dose: 400.0 mg/kg/injection, schedule: Q01DX009 (ip), vehicle: Klucel (hydroxypropylcellulose) (HPC)
[4] = dose: 100.0 mg/kg/injection, schedule: Q04DX003 (ip), vehicle: Klucel (hydroxypropylcellulose) (HPC)
[5] = dose: 200.0 mg/kg/injection, schedule: Q04DX003 (ip), vehicle: Klucel (hydroxypropylcellulose) (HPC)
[6] = dose: 100.0 mg/kg/injection, schedule: Q04DX002 (ip), vehicle: Klucel (hydroxypropylcellulose) (HPC)
[7] = dose: 200.0 mg/kg/injection, schedule: Q04DX002 (ip), vehicle: Klucel (hydroxypropylcellulose) (HPC)
[8] = dose: 100.0 mg/kg/injection, schedule: Q01DX009 (ip), vehicle: saline with Tween-80
[9] = dose: 400.0 mg/kg/injection, schedule: Q01DX009 (ip), vehicle: saline with Tween-80
[10] = dose: 400.0 mg/kg/injection, schedule: Q04DX002 (ip), vehicle: Klucel (hydroxypropylcellulose) (HPC)
[11] = dose: 100.0 mg/kg/injection, schedule: Q01DX001 (ip), vehicle: Klucel (hydroxypropylcellulose) (HPC)
[12] = dose: 200.0 mg/kg/injection, schedule: Q01DX001 (ip), vehicle: Klucel (hydroxypropylcellulose) (HPC)
[13] = dose: 400.0 mg/kg/injection, schedule: Q01DX001 (ip), vehicle: Klucel (hydroxypropylcellulose) (HPC)

O=C(Nc1cccc(Cl)c1)c1cc([N+](=O)[O-])ccc1O was tested, and the T/C (dose: 5.0 mg/kg/injection, schedule: Q01DX001 (ip), vehicle: other) was 104 % of control, the T/C (dose: 10.0 mg/kg/injection, schedule: Q01DX001 (ip), vehicle: other) was 104 % of control and the T/C (dose: 10.0 mg/kg/injection, schedule: Q02DX010 (ip), vehicle: carboxymethylcellulose (CMC)) was 105 % of control. The T/C (dose: 20.0 mg/kg/injection, schedule: Q01DX001 (ip), vehicle: other) was 104 % of control, the T/C (dose: 20.0 mg/kg/injection, schedule: Q02DX010 (ip), vehicle: carboxymethylcellulose (CMC)) was 109 % of control and the T/C (dose: 40.0 mg/kg/injection, schedule: Q01DX001 (ip), vehicle: other) was 101 % of control. The T/C (dose: 40.0 mg/kg/injection, schedule: Q02DX010 (ip), vehicle: carboxymethylcellulose (CMC)) was 95 % of control, the T/C (dose: 80.0 mg/kg/injection, schedule: Q01DX001 (ip), vehicle: other) was 95 % of control and the T/C (dose: 80.0 mg/kg/injection, schedule: Q02DX010 (ip), vehicle: carboxymethylcellulose (CMC)) was 88 % of control. For the same compound, the T/C (dose: 100.0 mg/kg/injection, schedule: Q01DX001 (ip), vehicle: other) was 86 % of control, the T/C (dose: 200.0 mg/kg/injection, schedule: Q01DX001 (ip), vehicle: other) was 97 % of control and the T/C (dose: 400.0 mg/kg/injection, schedule: Q01DX001 (ip), vehicle: other) was 114 % of control.

Cc1nc2ccccc2n(O)c1=O was tested, and the T/C (dose: 50.0 mg/kg/injection, schedule: Q01DX009 (ip), vehicle: Klucel (hydroxypropylcellulose) (HPC)) was 97 % of control, the T/C [1] was 93 % of control and the T/C [2] was 89 % of control.

For O=C(O)c1cc(N=Nc2cccc([N+](=O)[O-])c2)ccc1O, the T/C (dose: 62.5 mg/kg/injection, schedule: Q01DX001 (ip), vehicle: Klucel (hydroxypropylcellulose) (HPC)) was 97 % of control and the T/C (dose: 125.0 mg/kg/injection, schedule: Q01DX001 (ip), vehicle: Klucel (hydroxypropylcellulose) (HPC)) was 92 % of control.

For Nc1nc(-c2ccc3c(c2)Sc2ccccc2O3)cs1, the T/C (dose: 75.0 mg/kg/injection, schedule: Q04DX003 (ip), vehicle: saline) was 93 % of control, the T/C (dose: 150.0 mg/kg/injection, schedule: Q04DX003 (ip), vehicle: saline) was 91 % of control and the T/C (dose: 300.0 mg/kg/injection, schedule: Q04DX003 (ip), vehicle: saline) was 91 % of control.

With COC(=O)CNc1ccc(O)cc1 the T/C (dose: 100.0 mg/kg/injection, schedule: Q04DX003 (ip), vehicle: other) was 102 % of control, the T/C (dose: 200.0 mg/kg/injection, schedule: Q04DX003 (ip), vehicle: other) was 94 % of control and the T/C (dose: 400.0 mg/kg/injection, schedule: Q04DX003 (ip), vehicle: other) was 88 % of control.

With C=C(Cl)c1c(C)cc(C)c(CC#N)c1C the T/C (dose: 12.5 mg/kg/injection, schedule: Q01DX009 (ip), vehicle: DMSO) was 92 % of control, the T/C (dose: 12.5 mg/kg/injection, schedule: Q04DX003 (ip), vehicle: DMSO) was 87 % of control and the T/C (dose: 25.0 mg/kg/injection, schedule: Q01DX009 (ip), vehicle: DMSO) was 92 % of control. The T/C (dose: 25.0 mg/kg/injection, schedule: Q04DX003 (ip), vehicle: DMSO) was 93 % of control, the T/C (dose: 50.0 mg/kg/injection, schedule: Q04DX003 (ip), vehicle: DMSO) was 93 % of control and the T/C (dose: 200.0 mg/kg/injection, schedule: Q04DX003 (ip), vehicle: DMSO) was 87 % of control.

In the case of COC(=O)C1CC=CC(C)C1C(=O)OC (stereo unspecified), the T/C [1] is reported as 105 % of control, the T/C [2] is reported as 103 % of control and the T/C [3] is reported as 100 % of control.

For CNC(=S)Nc1ncn[nH]1, the T/C (dose: 100.0 mg/kg/injection, schedule: Q04DX003 (ip), vehicle: saline) was 94 % of control, the T/C (dose: 200.0 mg/kg/injection, schedule: Q04DX003 (ip), vehicle: saline) was 100 % of control and the T/C (dose: 400.0 mg/kg/injection, schedule: Q04DX003 (ip), vehicle: saline) was 86 % of control.

For CC(C)NS(=O)(=O)c1ccc(Cl)cc1, the T/C [4] was 100 % of control and the T/C [5] was 102 % of control.

O=S1(=O)CC2(C1)OCCO2 was tested, and the T/C [6] was 94 % of control and the T/C [7] was 94 % of control.

For O=NN(CCCl)C(=O)Nc1ccc2[nH]c3ccccc3c2c1, the T/C (dose: 90.0 mg/kg/injection, schedule: Q01DX009 (ip), vehicle: carboxymethylcellulose (CMC)) was 120 % of control, the T/C (dose: 260.0 mg/kg/injection, schedule: Q01DX009 (ip), vehicle: Klucel (hydroxypropylcellulose) (HPC)) was 108 % of control and the T/C (dose: 266.0 mg/kg/injection, schedule: Q01DX009 (ip), vehicle: carboxymethylcellulose (CMC)) was 157 % of control. The T/C (dose: 520.0 mg/kg/injection, schedule: Q01DX009 (ip), vehicle: Klucel (hydroxypropylcellulose) (HPC)) was 88 % of control and the T/C (dose: 600.0 mg/kg/injection, schedule: Q01DX009 (ip), vehicle: carboxymethylcellulose (CMC)) was 108 % of control.

O=S(=O)(O)CCN1CCOCC1 was tested, and the T/C [1] was 100 % of control and the T/C [3] was 100 % of control.

With C=CCNC(=O)Oc1cccc(NC(=O)CC)c1 the T/C [8] was 94 % of control, the T/C (dose: 200.0 mg/kg/injection, schedule: Q01DX009 (ip), vehicle: saline with Tween-80) was 91 % of control and the T/C [9] was 87 % of control.

With CCCCCCCCCCCCCCCC(=O)Nc1cccc2c[n+](CC(=O)c3ccc(NC(=O)CCC(=O)OC)cc3)ccc12 the T/C [8] was 87 % of control, the T/C [9] was 91 % of control and the T/C (dose: 400.0 mg/kg/injection, schedule: Q04DX003 (ip), vehicle: saline with Tween-80) was 94 % of control.

In the case of NC(=O)OCc1ccccc1, the T/C (dose: 50.0 mg/kg/injection, schedule: Q04DX002 (ip), vehicle: Klucel (hydroxypropylcellulose) (HPC)) is reported as 98 % of control, the T/C [6] is reported as 98 % of control and the T/C [7] is reported as 94 % of control. For the same compound, the T/C [10] was 94 % of control.

O=C(Nc1ccc(C2=NCCN2)cc1)c1ccc(CNc2ccc(C3=NCCN3)cc2)cc1 was tested, and the T/C (dose: 0.5 mg/kg/injection, schedule: Q01DX Z (ip), vehicle: water) was 93 % of control, the T/C (dose: 1.0 mg/kg/injection, schedule: Q01DX Z (ip), vehicle: water) was 96 % of control and the T/C (dose: 2.0 mg/kg/injection, schedule: Q01DX Z (ip), vehicle: water) was 113 % of control. For the same compound, the T/C (dose: 4.0 mg/kg/injection, schedule: Q01DX Z (ip), vehicle: water) was 111 % of control, the T/C (dose: 6.25 mg/kg/injection, schedule: Q01DX Z (ip), vehicle: water) was 159 % of control and the T/C (dose: 12.5 mg/kg/injection, schedule: Q01DX Z (ip), vehicle: water) was 276 % of control. For the same compound, the T/C (dose: 25.0 mg/kg/injection, schedule: Q01DX Z (ip), vehicle: water) was 188 % of control.

With Cc1cccc(N(CCOC(=O)Nc2cccc(Cl)c2)CCOC(=O)Nc2cccc(Cl)c2)c1 the T/C (dose: 200.0 mg/kg/injection, schedule: Q01DX001 (ip), vehicle: saline) was 100 % of control and the T/C (dose: 400.0 mg/kg/injection, schedule: Q01DX001 (ip), vehicle: saline) was 89 % of control.

For Cc1ccc2ncccc2c1N (tested in a mixture with another compound), the T/C (dose: 100.0 mg/kg/injection, schedule: Q04DX003 (ip), vehicle: gum acacia) was 93 % of control, the T/C (dose: 200.0 mg/kg/injection, schedule: Q04DX003 (ip), vehicle: gum acacia) was 98 % of control and the T/C (dose: 400.0 mg/kg/injection, schedule: Q04DX003 (ip), vehicle: gum acacia) was 94 % of control.

In the case of CCOC(=O)Cc1c(C(=O)OCC)[nH]c(C)c1C(C)=O, the T/C [11] is reported as 104 % of control, the T/C [12] is reported as 95 % of control and the T/C [13] is reported as 95 % of control.

With Cc1cc(NC(=O)Nc2cc(F)ccc2F)no1 the T/C [11] was 117 % of control, the T/C [1] was 97 % of control and the T/C [6] was 94 % of control and 90 % of control. For the same compound, the T/C [4] was 99 % of control, the T/C [12] was 106 % of control and the T/C [2] was 92 % of control and 100 % of control. For the same compound, the T/C [7] was 94 % of control and 97 % of control, the T/C [5] was 103 % of control and the T/C [13] was 101 % of control. The T/C [3] was 97 % of control and 90 % of control, the T/C [10] was 94 % of control and 101 % of control and the T/C (dose: 400.0 mg/kg/injection, schedule: Q04DX003 (ip), vehicle: Klucel (hydroxypropylcellulose) (HPC)) was 103 % of control.

For O=C(/C=C/c1ccco1)c1ccc(F)cc1, the T/C (dose: 75.0 mg/kg/injection, schedule: Q01DX001 (ip), vehicle: saline) was 94 % of control, the T/C (dose: 150.0 mg/kg/injection, schedule: Q01DX001 (ip), vehicle: saline) was 98 % of control and the T/C (dose: 300.0 mg/kg/injection, schedule: Q01DX001 (ip), vehicle: saline) was 102 % of control.
